Experiments:
HeLa cells [1] = assay: Cell growth inhibition assay, HeLa; assay type: cell-based, human; settings: Table 2 comparison, growth up to 4 days
From the text: (§1) Human epitheloid cervical carcinoma HeLa cells, human breast adenocarcinoma MCF7 and MDA-MB-231cells, human hepatocellular carcinoma HepG2 cells, human colon adenocarcinoma HT-29 cells, and human colorectal carcinoma HCT-116 cells were purchased from ATCC® and maintained in DMEM medium. Human prostate carcinoma PC-3 cells (purchased from ATCC®), human gastric carcinoma SNU-484 and SNU-601(obtained from Korean Cell Line Bank (KCLB)), human leukemia K-562 and HL-60 cells (purchased from ATCC®), immortalized human prostate epithelial 267B1cells, and immortalized human embryonic lung fibroblast MRC5CV1 cells were maintained in RPMI 1640 medium whereas immortalized retinal pigment epithelial hTERT RPE-1 cells (purchased from ATCC®) were maintained in DMEM/F12 medium. All cell lines were cultured in media supplemented with 10% fetal bovine serum, 100 U/ml penicillin, and […] streptomycin at 37°C in a 5% CO2 incubator.
(§2) Cells were seeded at the appropriate amount (1–2×10^3 cells) in triplicate in 96-well plates for 24 h and then treated with various concentrations of STK295900. Cell growth was determined by using EZ-CyTox cell viability assay kit (Daeil Lab. Service, Seoul, Korea). Ten microliters of WST solution were added to the treated cells at 24, 48, 72, and 96 h. Cells were further incubated at 37°C for 2 h and the absorbance was measured at 450 nm.

MCF7 cells = assay: Cell growth inhibition assay, MCF7; assay type: cell-based, human; settings: Table 2 comparison, MCF7, growth up to 4 days
From the text: as §1, §2

HepG2 cells = assay: Cell growth inhibition assay, HepG2; assay type: cell-based, human; settings: Table 2 comparison, HepG2, growth up to 4 days
From the text: as §1, §2

HT-29 cells = assay: Cell growth inhibition assay, HT-29; assay type: cell-based, human; settings: Table 2 comparison, HT-29, growth up to 4 days
From the text: as §1, §2

hTERT RPE-1 cells = assay: Cell growth inhibition assay, hTERT RPE-1; assay type: cell-based, human; settings: Table 2 comparison, hTERT RPE-1, non-cancer, growth up to 4 days
From the text: as §1, §2

267B1 cells = assay: Cell growth inhibition assay, 267B1; assay type: cell-based, human; settings: Table 2 comparison, 267B1, non-cancer, growth up to 4 days
From the text: as §1, §2

MRC5CV1 cells = assay: Cell growth inhibition assay, MRC5CV1; assay type: cell-based, human; settings: Table 2 comparison, MRC5CV1, non-cancer, growth up to 4 days
From the text: as §1, §2

[2] = test system: cancer (HeLa, MCF7, HepG2, and HT-29) and non-cancerous cell lines (hTERT RPE-1, 267B1, and MRC5CV1); assay: Cell growth inhibition assay, cancer and non-cancerous cell lines compared; assay type: cell-based, human
From the text: as §1, §2

HeLa cells [3] = assay: Immunoblot of cell cycle and DNA damage checkpoint proteins; assay type: cell-based, human; settings: 24 h, STK295900 1 or 5 µM, camptothecin 10 µM, etoposide 10 µM
Procedure: (§3) Cells were lysed with cold RIPA buffer (50 mM Tris-HCl pH 8.0, 150 mM NaCl, 1% NP-40, 0.5% sodium deoxycholate, 0.1% SDS) containing freshly added protease inhibitor, phosphatase inhibitor (SIGMA), 1 mM DTT, and 1 mM Na3VO4 on ice for 1 h. Whole cell lysates were centrifuged at 15,000 rpm for 20 min and then the supernatant was transferred into a new tube. An appropriate amount of cell lysate was subjected to SDS-PAGE. Then the resolved proteins were transferred onto a PVDF membrane (Bio-Rad) for immunoblot analyses with specific antibodies. The proteins were detected using chemiluminescence solution (Thermo Scientific, Rockford, IL).
(A) Flow cytometric analysis for cell cycle distribution. HeLa cells were treated with the indicated concentrations of STK295900 for 24 h. Treated cells were then stained with propidium iodide (PI) and processed for cell cycle analysis. The bar graph represents the mean percentage of each cell cycle phase ± SD from three independent experiments. * = p<0.05 versus the respective G1, S, or G2/M phase of DMSO-treated cells. (B) Mitotic index of STK295900. HeLa cells were treated with the indicated concentrations of STK295900 for 24 h. Cells were then stained with Hoechst 33342 and mitotic cells were counted. […] (C) Cell cycle related proteins expression. […] Treated cells were lysed and subjected to immunoblot analyses with antibodies against cyclin A, cyclin B1, phospho-Histone H3 (S10), and Histone H3. β-actin was used as a loading control.
(A) G2/M transition regulated proteins expression. […] GAPDH was used as a loading control. (B) DNA damage-checkpoint related proteins. […] Images were analyzed on a fluorescence microscope.

[4] = biological target: T1, calf thymus topoisomerase 1 (Bos taurus, UniProt F1MN93); assay: Supercoiled DNA relaxation assay for topoisomerase 1; assay type: biochemical
T1 construct: purified calf thymus topoisomerase 1; purchased Takara Bio, Shiga, Japan; host or cells: calf thymus (tissue-purified)
T1 sequence (F1MN93 1-767): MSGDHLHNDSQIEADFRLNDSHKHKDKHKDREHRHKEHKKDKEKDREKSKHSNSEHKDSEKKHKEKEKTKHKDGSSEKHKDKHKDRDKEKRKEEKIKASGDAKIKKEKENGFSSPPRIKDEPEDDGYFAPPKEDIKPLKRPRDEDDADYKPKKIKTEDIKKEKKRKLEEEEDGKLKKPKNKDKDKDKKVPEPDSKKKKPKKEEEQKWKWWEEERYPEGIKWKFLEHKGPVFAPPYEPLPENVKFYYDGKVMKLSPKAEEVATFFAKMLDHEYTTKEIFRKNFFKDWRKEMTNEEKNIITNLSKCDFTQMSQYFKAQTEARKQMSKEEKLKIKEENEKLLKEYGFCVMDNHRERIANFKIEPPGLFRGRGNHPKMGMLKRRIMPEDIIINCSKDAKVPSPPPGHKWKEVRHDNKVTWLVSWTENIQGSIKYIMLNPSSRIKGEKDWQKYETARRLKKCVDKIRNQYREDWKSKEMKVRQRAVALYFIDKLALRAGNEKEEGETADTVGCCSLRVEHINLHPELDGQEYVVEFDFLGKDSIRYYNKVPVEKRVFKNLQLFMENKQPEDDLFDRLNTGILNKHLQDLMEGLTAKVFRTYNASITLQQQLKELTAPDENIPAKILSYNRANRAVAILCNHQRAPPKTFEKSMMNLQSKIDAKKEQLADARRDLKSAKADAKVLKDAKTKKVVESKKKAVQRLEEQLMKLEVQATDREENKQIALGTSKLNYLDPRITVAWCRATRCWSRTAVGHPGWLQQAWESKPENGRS

HeLa cells [5] = assay: Antagonistic effect on Top poison-induced DNA damage (γ-H2A.X immunoblot); assay type: cell-based, human; settings: DMSO pretreated, 10 µM or 30 µM, 1 h
Procedure: as §3
(§4) Supercoiled DNA relaxation assay for (A) topoisomerase 1 (Top 1) and (B) topoisomerase 2 (Top 2). Supercoiled pBR322 plasmid DNA was incubated at 37°C for 30 min with Top 1 enzyme (A) or Top 2α (B) in the presence of various concentrations of indicated compounds. DNA samples were separated by electrophoresis on a 1% agarose gel, stained with ethidium bromide, and visualized by UV light. (−), supercoiled DNA alone; oc, open circular; sc, supercoiled. […] HeLa cells were pretreated with 10 µM of STK295900 for 30 min and then incubated with the indicated concentrations of camptothecin for 1 h. Treated cells were lysed and subjected to immunoblot analyses with antibody against γ-H2A.X. β-actin was used as a loading control. […] HeLa cells were pretreated with STK295900 at 10, 20, 30, or 50 µM or ICRF-193 at 10 µM for 30 min. […] Treated cells were then lysed and subjected to immunoblot analyses with antibody against γ-H2A.X. β-actin was used as a loading control.
The lysates were subjected to immunoblot analyses with γ-H2A.X antibody.

human topoisomerase 2α = human topoisomerase 2α (Homo sapiens, UniProt P11388); assay: Supercoiled DNA relaxation assay for topoisomerase 2α; assay type: biochemical; settings: pBR322, 37°C, 30 min
Procedure: After incubation, the reaction was terminated by addition of 2 µl of 10% SDS. The reaction mixtures were treated with 50 µg/ml proteinase K for 30 min at 37°C and then DNA was extracted with CIA (chloroform:isoamyl alcohol, 24∶1). Samples were resolved by electrophoresis on a 1% agarose gel. After staining the electrophoresed gel with ethidium bromide, DNA bands were visualized by UV light and photographed on Gel Doc XR.
as §4

Chain of human topoisomerase 2α (P11388 whole entry): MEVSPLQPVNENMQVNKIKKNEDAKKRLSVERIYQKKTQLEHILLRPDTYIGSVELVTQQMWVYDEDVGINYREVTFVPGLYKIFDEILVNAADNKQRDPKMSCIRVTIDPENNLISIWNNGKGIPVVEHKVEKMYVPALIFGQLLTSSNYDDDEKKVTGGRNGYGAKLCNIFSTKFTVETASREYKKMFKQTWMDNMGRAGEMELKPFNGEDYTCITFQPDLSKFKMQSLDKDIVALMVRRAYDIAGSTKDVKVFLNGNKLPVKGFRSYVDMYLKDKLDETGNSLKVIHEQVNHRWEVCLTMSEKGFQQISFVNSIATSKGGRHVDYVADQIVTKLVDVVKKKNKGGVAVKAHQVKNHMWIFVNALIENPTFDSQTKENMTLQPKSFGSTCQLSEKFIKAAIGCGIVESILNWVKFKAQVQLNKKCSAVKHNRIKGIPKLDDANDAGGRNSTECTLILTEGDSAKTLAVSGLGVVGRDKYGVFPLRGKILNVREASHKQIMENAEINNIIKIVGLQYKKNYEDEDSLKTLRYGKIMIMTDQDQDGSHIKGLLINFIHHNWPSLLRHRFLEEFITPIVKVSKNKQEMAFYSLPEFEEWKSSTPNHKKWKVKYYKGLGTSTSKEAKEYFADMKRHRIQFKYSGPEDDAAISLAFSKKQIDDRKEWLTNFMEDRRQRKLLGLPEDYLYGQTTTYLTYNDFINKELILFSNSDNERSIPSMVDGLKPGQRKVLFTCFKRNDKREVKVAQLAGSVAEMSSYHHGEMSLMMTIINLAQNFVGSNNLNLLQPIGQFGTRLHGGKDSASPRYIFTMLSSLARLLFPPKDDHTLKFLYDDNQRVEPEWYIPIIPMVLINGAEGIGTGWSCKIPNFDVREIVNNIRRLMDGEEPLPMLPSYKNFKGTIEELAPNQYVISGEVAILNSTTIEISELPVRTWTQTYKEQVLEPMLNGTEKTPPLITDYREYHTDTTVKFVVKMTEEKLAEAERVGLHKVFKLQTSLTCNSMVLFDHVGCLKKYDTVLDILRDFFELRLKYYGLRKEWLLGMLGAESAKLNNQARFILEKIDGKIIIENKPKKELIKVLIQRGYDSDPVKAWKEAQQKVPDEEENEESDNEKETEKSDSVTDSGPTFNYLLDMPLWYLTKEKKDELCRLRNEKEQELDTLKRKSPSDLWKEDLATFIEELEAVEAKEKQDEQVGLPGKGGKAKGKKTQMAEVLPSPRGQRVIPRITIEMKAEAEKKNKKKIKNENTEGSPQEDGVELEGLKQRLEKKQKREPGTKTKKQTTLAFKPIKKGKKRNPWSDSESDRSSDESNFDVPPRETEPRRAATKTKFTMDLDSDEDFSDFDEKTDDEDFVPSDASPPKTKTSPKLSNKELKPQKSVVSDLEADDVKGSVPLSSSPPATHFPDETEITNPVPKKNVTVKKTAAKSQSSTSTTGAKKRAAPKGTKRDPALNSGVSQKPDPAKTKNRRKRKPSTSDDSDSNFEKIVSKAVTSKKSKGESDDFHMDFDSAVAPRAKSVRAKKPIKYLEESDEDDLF

Molecule | IC50 (HeLa cells [1]; Homo sapiens, 96 h) [nM] | IC50 (MCF7 cells; Homo sapiens, MCF7, 96 h) [nM] | IC50 (HepG2 cells; Homo sapiens, HepG2, 96 h) [nM] | IC50 (HT-29 cells; Homo sapiens, HT-29, 96 h) [nM] | IC50 (hTERT RPE-1 cells; Homo sapiens, hTERT-RPE1, 96 h) [nM] | IC50 (267B1 cells; Homo sapiens, 96 h) [nM] | IC50 (MRC5CV1 cells; Homo sapiens, 96 h) [nM] | Phosphorylation of Cdk1 at T161 (HeLa cells [3]; nocodazole 200 ng/ml) | Wee1 and Cdc25C levels (HeLa cells [3]; nocodazole 200 ng/ml) | cyclin A and cyclin B1 levels (HeLa cells [3]; nocodazole 200 ng/ml) | inhibitory phosphorylation of Cdk1 (T14 and Y15) (HeLa cells [3]; nocodazole 200 ng/ml) | Top 2α-mediated DNA relaxation (human topoisomerase 2α) | also measured
CC[C@@]1(O)C(=O)OCc2c1cc1n(c2=O)Cc2cc3ccccc3nc2-1 [Camptothecin] | 20 | 30 | 20 | 30 | < 10 | < 10 | 20 | strongly enhanced | reduction of Cdc25C | accumulations of cyclin A and cyclin B1 | abundance | – | IC50 ([2]; Homo sapiens, all cell lines tested (HeLa, MCF7, HepG2, HT-29, hTERT RPE-1, 267B1, MRC5CV1)): < 30 nM; p53 and p21 levels (HeLa cells [3]): significantly increased; phosphorylation-dependent activation of ATM (S1981), ATR (S428), Chk1 (S345), and Chk2 (T68) (HeLa cells [3]): activation of ATM, Chk1, and Chk2; Top 1-mediated DNA relaxation [4]: inhibited DNA relaxation activity of Top 1 in a dose-dependent manner; γ-H2A.X induction in control cells (immunoblot) (HeLa cells [5]): strongly induced γ-H2A.X
COC(=O)Nc1nc2ccc(C(=O)c3cccs3)cc2[nH]1 [nocodazole] | – | – | – | – | – | – | – | strongly enhanced | undetectable levels of Wee1 but activation of Cdc25C | high level of cyclin B1 and undetectable level of cyclin A | could not be detected | – | Histone H3 phosphorylation at S10 (HeLa cells [3]; nocodazole 200 ng/ml): detected only in cells treated with nocodazole
ICRF-193 | – | – | – | – | – | – | – | – | – | – | – | accumulation of supercoiled DNA | –
CCOc1ccc(-c2nc3ccc(-c4nc5ccc(N6CCN(C)CC6)cc5[nH]4)cc3[nH]2)cc1 [Hoechst 33342] | – | – | – | – | – | – | – | – | – | – | – | – | IC50 (HeLa cells [1]): 4560 nM; IC50 (MCF7 cells): 200 nM; IC50 (HepG2 cells): 220 nM; IC50 (HT-29 cells): 650 nM; IC50 (hTERT RPE-1 cells): 1010 nM; IC50 (267B1 cells): 840 nM; IC50 (MRC5CV1 cells): 350 nM; selectivity of toxicity, cancer versus non-cancer cells ([2]; cancer (HeLa, MCF7, HepG2, HT-29) vs non-cancer (hTERT RPE-1, 267B1, MRC5CV1)): diverse and non-selective against cancer cells
COc1cc([C@@H]2c3cc4c(cc3[C@@H](O[C@@H]3O[C@@H]5CO[C@@H](C)O[C@H]5[C@H](O)[C@H]3O)[C@H]3COC(=O)[C@H]23)OCO4)cc(OC)c1O [Etoposide] | 300 | 13200 | 840 | 10300 | 450 | 390 | 1290 | – | – | – | – | inhibited Top 2α activity by reducing the relaxed DNA and increasing nicked-open-circular DNA | –

Source: article PMC3551932, “STK295900, a Dual Inhibitor of Topoisomerase 1 and 2, Induces G2 Arrest in the Absence of DNA Damage” (PLoS ONE, 2013)
